Laboratory results from patent US20170008888A1 (KYORIN PHARMACEUTICAL CO., LTD., priority 2014, published 2017).

Columns and labels:
AurB or AurC = experiment: Probe-based (AX9989) kinase profiling in Jurkat lysate: AurB or AurC; assay type: binding
How it was run: (§1)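 Gel-filtered Jurkat lysate (HEPES pH 7.5, 20 mM MnCl2, 5 mg/ml) was pre-incubated 15 min with compound at room temperature, then labelled with 5 μM acyl-phosphate ATP probe AX9989. Tryptic probe-labelled active-site peptides were streptavidin-captured and quantified by LC/MS. Percent inhibition reflected the decrease in labelled-peptide intensity versus no compound.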

JAK1 = biological target: T1, JAK1 (Homo sapiens, UniProt P23458); experiment: Probe-based (AX9989) kinase profiling in Jurkat lysate: JAK1; assay type: binding; conditions: read-out: JAK1 Inhibition % at indicated screening concentration; for inhibition at 1 µM: screening concentration 1 μM; for inhibition at 10 µM: screening concentration 10 μM
T1 construct: screened for activity against several kinases in Jurkat cells; endogenous in cells; host or cells: Jurkat cell lysate
How it was run: as §1

ACK = biological target: T2, ACK (Homo sapiens, UniProt Q07912); experiment: Probe-based (AX9989) kinase profiling in Jurkat lysate: ACK; assay type: binding; conditions: read-out: ACK Inhibition % at indicated screening concentration; for inhibition at 1 µM: screening concentration 1 μM; for inhibition at 10 µM: screening concentration 10 μM
T2 construct: screened for activity against several kinases in Jurkat cells; endogenous in cells; host or cells: Jurkat cell lysate
How it was run: as §1

ABL or ARG = experiment: Probe-based (AX9989) kinase profiling in Jurkat lysate: ABL or ARG; assay type: binding
How it was run: as §1

[1] = biological target: T3, recombinant human ERK5 catalytic domain (Homo sapiens, UniProt Q13164); experiment: Recombinant human ERK5 radiometric (HotSpot) assay; assay type: biochemical; conditions: 10 μM ATP, 20 μM myelin basic protein substrate; read-out: rhERK5 IC50
T3 construct: Recombinant human ERK5 catalytic domain radiometric assays; purchased Reaction Biology, Corp (Malvern, Pa.), which ran the assay as a service
How it was run: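 Radiometric filter-binding HotSpot assay using [γ-33P]-ATP tracer with 10 μM cold ATP and 20 μM myelin basic protein substrate. Compounds tested in 10-point, ⅓-fold serial dilution from 20 μM; […].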

human PBMCs = experiment: Human PBMC TNF-α response to endotoxin (ELISA); assay type: cell-based; conditions: 0.1 μg/ml LPS 16 h, read-out: EC50 for the inhibition of the human PBMC TNF-α response to endotoxin, ave. ± S.D.
How it was run: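 PBMCs at 2e6 cells/ml in RPMI 1640 with 10% charcoal-dextran-treated FBS were pre-treated 1 h at 37 °C with compound (4-point 1:5 dilution from 10 μM). Stimulation with 0.1 μg/ml E. coli 0111:B4 LPS for 16 h; TNF-α measured by ELISA (A450) in 25-fold diluted supernatant.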

[2] = biological target: T4, BRD4 bromodomain domain I [BRD4(1)] (Homo sapiens, UniProt O60885); experiment: BRD4 bromodomain domain 1 inhibition assay (TR-FRET); assay type: binding; conditions: for inhibition at 10 µM: screening concentration 10 μM
T4 construct: BRD4 bromodomain domain I [BRD4(1)]; purchased Cayman Chemicals
How it was run: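 0.5% DMSO, in triplicate, using Cayman BRD4(1) TR-FRET protocol with slight modification. 670/620 nm ratio normalized to 10 μM JQ1, with DMSO control set as 0% inhibition.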

T2 sequence (Q07912 whole entry): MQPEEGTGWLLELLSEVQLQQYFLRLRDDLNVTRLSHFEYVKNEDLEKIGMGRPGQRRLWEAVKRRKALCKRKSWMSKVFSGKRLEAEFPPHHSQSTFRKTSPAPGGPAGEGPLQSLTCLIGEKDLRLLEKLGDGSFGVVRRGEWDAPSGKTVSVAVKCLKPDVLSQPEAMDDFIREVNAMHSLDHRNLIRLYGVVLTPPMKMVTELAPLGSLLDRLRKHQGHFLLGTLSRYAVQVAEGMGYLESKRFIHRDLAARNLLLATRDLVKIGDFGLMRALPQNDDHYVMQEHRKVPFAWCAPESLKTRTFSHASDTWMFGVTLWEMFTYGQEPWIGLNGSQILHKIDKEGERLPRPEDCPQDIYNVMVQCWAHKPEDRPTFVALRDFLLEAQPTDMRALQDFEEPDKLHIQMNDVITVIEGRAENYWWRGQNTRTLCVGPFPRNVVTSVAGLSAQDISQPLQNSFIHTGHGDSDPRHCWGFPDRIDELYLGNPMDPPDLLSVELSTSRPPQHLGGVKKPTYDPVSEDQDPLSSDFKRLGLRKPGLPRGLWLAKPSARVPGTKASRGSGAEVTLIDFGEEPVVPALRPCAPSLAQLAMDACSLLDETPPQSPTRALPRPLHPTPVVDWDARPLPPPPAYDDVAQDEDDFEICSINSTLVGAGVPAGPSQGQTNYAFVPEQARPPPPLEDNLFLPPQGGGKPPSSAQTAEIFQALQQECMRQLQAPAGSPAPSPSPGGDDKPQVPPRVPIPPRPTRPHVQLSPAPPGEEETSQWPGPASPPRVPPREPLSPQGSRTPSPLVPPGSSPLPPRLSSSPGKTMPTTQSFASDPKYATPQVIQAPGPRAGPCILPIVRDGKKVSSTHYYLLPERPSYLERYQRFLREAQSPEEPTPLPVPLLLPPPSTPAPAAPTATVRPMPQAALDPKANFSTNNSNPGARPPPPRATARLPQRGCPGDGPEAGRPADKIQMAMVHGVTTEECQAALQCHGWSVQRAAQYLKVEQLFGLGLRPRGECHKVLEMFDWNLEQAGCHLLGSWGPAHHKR
T1 sequence (P23458 whole entry): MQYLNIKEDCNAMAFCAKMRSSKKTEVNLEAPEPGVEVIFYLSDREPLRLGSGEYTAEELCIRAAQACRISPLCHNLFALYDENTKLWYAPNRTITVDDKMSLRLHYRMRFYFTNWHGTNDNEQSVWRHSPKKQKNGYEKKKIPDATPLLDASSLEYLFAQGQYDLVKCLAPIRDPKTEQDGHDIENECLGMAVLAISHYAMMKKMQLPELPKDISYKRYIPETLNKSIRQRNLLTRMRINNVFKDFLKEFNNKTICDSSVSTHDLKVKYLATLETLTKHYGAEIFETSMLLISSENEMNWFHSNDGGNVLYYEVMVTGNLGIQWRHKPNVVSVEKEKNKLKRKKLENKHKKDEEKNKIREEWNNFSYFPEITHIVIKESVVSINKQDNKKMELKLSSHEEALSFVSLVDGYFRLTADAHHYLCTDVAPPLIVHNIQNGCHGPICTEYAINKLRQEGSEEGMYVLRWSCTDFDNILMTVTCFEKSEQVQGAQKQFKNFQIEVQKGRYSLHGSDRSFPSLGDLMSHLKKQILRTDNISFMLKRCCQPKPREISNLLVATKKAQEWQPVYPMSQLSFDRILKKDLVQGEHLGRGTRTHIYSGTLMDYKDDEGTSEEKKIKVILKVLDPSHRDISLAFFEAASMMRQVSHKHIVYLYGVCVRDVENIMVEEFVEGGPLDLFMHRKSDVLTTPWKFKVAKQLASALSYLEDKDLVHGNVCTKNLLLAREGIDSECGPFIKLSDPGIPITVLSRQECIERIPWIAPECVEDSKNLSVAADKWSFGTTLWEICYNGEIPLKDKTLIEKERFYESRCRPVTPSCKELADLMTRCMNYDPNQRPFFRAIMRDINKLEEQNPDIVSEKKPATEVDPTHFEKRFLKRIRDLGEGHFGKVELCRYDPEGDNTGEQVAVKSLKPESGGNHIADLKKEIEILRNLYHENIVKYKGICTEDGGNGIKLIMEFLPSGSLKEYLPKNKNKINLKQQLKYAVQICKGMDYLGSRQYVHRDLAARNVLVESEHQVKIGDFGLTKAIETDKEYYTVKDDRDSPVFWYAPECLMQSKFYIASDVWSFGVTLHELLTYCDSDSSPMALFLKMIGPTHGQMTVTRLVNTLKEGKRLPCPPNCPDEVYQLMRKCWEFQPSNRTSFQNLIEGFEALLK
T3 sequence (Q13164 55-347 limits assumed): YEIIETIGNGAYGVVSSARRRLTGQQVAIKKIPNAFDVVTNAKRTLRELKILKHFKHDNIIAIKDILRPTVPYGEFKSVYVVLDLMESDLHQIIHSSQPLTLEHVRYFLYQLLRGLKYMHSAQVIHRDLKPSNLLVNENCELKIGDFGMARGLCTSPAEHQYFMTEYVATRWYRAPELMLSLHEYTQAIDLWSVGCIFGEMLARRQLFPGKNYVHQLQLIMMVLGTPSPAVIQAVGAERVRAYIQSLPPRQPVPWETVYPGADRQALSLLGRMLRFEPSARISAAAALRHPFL

| Compound | AurB or AurC Inhibition % at indicated screening concentration (AurB or AurC; screening concentration 1 μM) | inhibition at 1 µM (JAK1) [%] | inhibition at 1 µM (ACK) [%] | ABL or ARG Inhibition % at indicated screening concentration (ABL or ARG; screening concentration 1 μM) | IC50 [1] [µM] | EC50 (human PBMCs) [µM] | inhibition at 10 µM [2] [%] | inhibition at 5 µM ([2]; Screening concentration 5 μM) [%] | AurB or AurC Inhibition % at indicated screening concentration (AurB or AurC; screening concentration 10 μM) | inhibition at 10 µM (JAK1) [%] | inhibition at 10 µM (ACK) [%] | ABL or ARG Inhibition % at indicated screening concentration (ABL or ARG; screening concentration 10 μM) |
| --- | --- | --- | --- | --- | --- | --- | --- | --- | --- | --- | --- | --- |
| CCOc1cc(C(=O)N2CCN(C3CCN(C)CC3)CC2)ccc1Nc1cc2c(cn1)N(C)C(=O)c1ccccc1N2C [Compound T8] | E (E is ≦35%) | ≤ 35 | ≤ 35 | E (E is ≦35%) | < 0.02 | 0.41 ± 0.12 | > 85 |  |  |  |  |  |
| CCOc1cc(C(=O)N2CC[C@@H](NCCF)C2)ccc1Nc1cc2c(cn1)N(C)C(=O)c1ccccc1N2C [Compound T9] | E (E is ≦35%) | ≤ 35 | ≤ 35 | E (E is ≦35%) | 0.02 to 0.05 | 0.59 | 70 to 85 |  |  |  |  |  |
| CCOc1cc(C(=O)N2CCC(N3CC[C@@H](O)C3)CC2)ccc1Nc1cc2c(cn1)N(C)C(=O)c1ccccc1N2C [Compound T10] | E (E is ≦35%) | ≤ 35 | ≤ 35 | E (E is ≦35%) | 0.02 to 0.05 | 0.65 | > 85 |  |  |  |  |  |
| CCOc1cc(C(=O)N2CCC(N3CC[C@H](O)C3)CC2)ccc1Nc1cc2c(cn1)N(C)C(=O)c1ccccc1N2C [Compound T11] | E (E is ≦35%) | ≤ 35 | ≤ 35 | E (E is ≦35%) | 0.02 to 0.05 | 0.62 | > 85 |  |  |  |  |  |
| CCOc1cc(C(=O)N2CCN(CCN(C)C)CC2)ccc1Nc1cc2c(cn1)N(C)C(=O)c1ccccc1N2C [Compound T14] | E (E is ≦35%) | ≤ 35 | ≤ 35 | E (E is ≦35%) | 0.02 to 0.05 | 0.72 ± 0.05 | > 85 |  |  |  |  |  |
| CCOc1cc(C(=O)N2CCN(CCN3CCOCC3)CC2)ccc1Nc1cc2c(cn1)N(C)C(=O)c1ccccc1N2C [Compound T15] | E (E is ≦35%) | ≤ 35 | ≤ 35 | E (E is ≦35%) | 0.02 to 0.05 | 0.8 ± 0.27 | > 85 |  |  |  |  |  |
| CCOc1cc(C(=O)N2CCN(C(C)=O)CC2)ccc1Nc1cc2c(cn1)N(C)C(=O)c1ccccc1N2C [Compound T18] | E (E is ≦35%) | ≤ 35 | ≤ 35 | E (E is ≦35%) | 0.02 to 0.05 | 0.82 ± 0.1 | 70 to 85 |  |  |  |  |  |
| CCOc1cc(C(=O)N2CC[C@@H](N3CCN(C)CC3)C2)ccc1Nc1cc2c(cn1)N(C)C(=O)c1ccccc1N2C [Compound T20] | E (E is ≦35%) | ≤ 35 | ≤ 35 | E (E is ≦35%) | 0.02 to 0.05 | 0.46 ± 0.14 |  | > 85 |  |  |  |  |
| CCOc1cc(C(=O)N2CC[C@H](C#N)C2)ccc1Nc1cc2c(cn1)N(C)C(=O)c1ccccc1N2C [Compound T22] | E (E is ≦35%) | ≤ 35 | ≤ 35 | E (E is ≦35%) | 0.05 to 0.2 | 0.82 ± 0.14 | < 70 |  |  |  |  |  |
| CCOc1cc(C(=O)N2CCC(N3CCCN(C)CC3)CC2)ccc1Nc1cc2c(cn1)N(C)C(=O)c1ccccc1N2C [Compound T31] | E (E is ≦35%) | ≤ 35 | ≤ 35 | E (E is ≦35%) | < 0.02 | 0.49 | > 85 |  |  |  |  |  |
| CN1CCN(C2CCN(C(=O)c3ccc(Nc4cc5c(cn4)N(C)C(=O)c4ccccc4N5C)c(OCCF)c3)CC2)CC1 [Compound T34] | E (E is ≦35%) | ≤ 35 | ≤ 35 | E (E is ≦35%) | < 0.02 | 0.49 ± 0.04 | 70 to 85 |  |  |  |  |  |
| CCOc1cc(C(=O)N2CCC(NC3CCN(C)CC3)C2)ccc1Nc1cc2c(cn1)N(C)C(=O)c1ccccc1N2C (stereo not shown) [Compound T42] | E (E is ≦35%) | ≤ 35 | ≤ 35 | E (E is ≦35%) | 0.05 to 0.2 | 0.68 ± 0.45 | > 85 |  |  |  |  |  |
| CC(C)Oc1cc(C(=O)N2CCC[C@H](O)C2)ccc1Nc1cc2c(cn1)N(C)C(=O)c1ccccc1N2C [Compound T48] |  |  |  |  | 0.05 to 0.2 | 0.74 | 70 to 85 |  | E (E is ≦35%) | ≤ 35 | ≤ 35 | E (E is ≦35%) |
| CCOc1cc(C(=O)N2CCC(NCCF)C2)ccc1Nc1cc2c(cn1)N(C)C(C(F)(F)F)c1ccccc1N2C (stereo not shown) [Compound T54] |  |  |  |  | > 0.2 | 7.14 |  |  | E (E is ≦35%) | ≤ 35 | ≤ 35 | E (E is ≦35%) |
| CCOc1cc(C(=O)N[C@H]2CC[C@@H](O)CC2)ccc1Nc1cc2c(cn1)N(C)C(=O)c1ccccc1N2C [Compound T63] | E (E is ≦35%) | ≤ 35 | ≤ 35 | E (E is ≦35%) | > 0.2 | 0.75 |  |  |  |  |  |  |
